The test system of data set [1] is MMP-2 and cathepsin B. The experiment in a line: Dual-enzyme (sequential MMP-2 then cathepsin B) activation: fluorescence, singlet oxygen, LC-MS. It counts as biochemical. To be noted: for singlet oxygen generation (DPBF decay at 417 nm) after enzyme treatment: DPBF 30 μM, sequential MMP-2 and cathepsin B, irradiation λ > 610 nm, 300 s. The method, then: To study the dual-enzyme-activated effect, PMB 1 was first treated with MMP-2 (2 μg mL^–1) in PBS for 6 h, followed by the addition of NaOAc, EDTA, and GSH and adjustment of the pH to 5.0 to create a working environment for cathepsin B. This enzyme (1 unit mL^–1) was then added, and the mixture was stirred for a further 19 h. […] The intensity at 25 h was almost the same as that at 24 h, which could be regarded as full activation, arising from the complete separation of the two components. In contrast, the absorption and fluorescence spectra of 14 remained unchanged upon this treatment (Figure S10).
The fluorescence recovery was then determined for 1 under the aforementioned conditions, assuming that the fluorescence intensity of 8 at the same concentration in the same medium was the maximum fluorescence intensity that could be recovered. The results are depicted in Figure 3c. […] In addition, we also determined the corresponding on/off ratios by dividing the fluorescence intensity at 25 h by the initial fluorescence intensity under each of these conditions. […] For 14, the ratios were below 1.5 under all the conditions, showing that the effect of the two enzymes was negligible for this conjugate.
Apart from the activation in fluorescence emission, the activation of 1 in singlet oxygen generation was also studied. PMB 1 (1 μM) was treated with MMP-2 and/or cathepsin B as described above and then mixed with DPBF (30 μM). The absorption spectra of these mixtures were monitored during light irradiation (λ > 610 nm) over a period of 300 s. […] The decrease in absorbance became more substantial for 1 after the treatment with both enzymes. As expected, the changes were negligible for 14 under all conditions (Figure S12).
To study the dual-enzyme-activated effect, PMB 1 was treated with MMP-2 (for 6 h) and cathepsin B (for 19 h) sequentially as mentioned above. […]
(§1) where W and Iabs are the DPBF photobleaching rate and the rate of light absorption, […]
(§2) MMP-2 and Cathepsin B-Responsive Spectroscopic Studies
Compound 1 or 14 was dissolved in DMF to form a 1 mM stock solution, which was then diluted to 1 μM with PBS at pH 7.4 or buffer solution (pH 5.0, 25 mM NaOAc, 1 mM EDTA, 500 μM GSH), both in the presence of 0.1% Tween 80 (v/v) . For the MMP-2-responsive studies, the solutions in PBS were treated with MMP-2 (2 μg mL-1). For the cathepsin B-responsive studies, the solutions in buffer solution were treated with cathepsin B (1 unit mL-1). For the dual-enzyme-responsive studies, the solutions in PBS were first treated with MMP-2 (2 μg mL-1) for 6 h, followed by the treatment with cathepsin B (1 unit mL-1) after the addition of NaOAc, EDTA, and GSH and adjustment of the pH, turning into the conditions of the buffer solution.
All of the solutions were stirred continuously at 37 °C. The ir electronic absorption and fluorescence spectra were monitored over a period of 25 h.
MMP-2- and Cathepsin B-Responsive Singlet Oxygen Generation Studies […]
halogen lamp after passing through a water tank for cooling and a color glass filter (Newport) cut-on at λ = 610 nm. The decay of DPBF at λ = 417 nm was monitored with a spectrophotometer during the irradiation period. […]
According to the above procedure, 1 and 14 were treated with MMP-2 and cathepsin B. After a period of 25 h, MeOH was added into the solutions for precipitating the enzymes. After filtration, the filtrate was analyzed by LC-MS using the aforementioned conditions. […]

The nature of data set [2]: Fluorescence quantum yield in DMF. It counts as physicochemical. To be noted: excited at 610 nm, relative to ZnPc (ΦF = 0.28 in DMF). The text has this: The electronic absorption and fluorescence spectra of PMB 1 were first recorded in DMF and compared with those of the components 8 and 11, as well as the non-cleavable analogue 14 (Figure S2 and Table 1). […] In contrast, the fluorescence spectra of 1 and 14 were remarkably different from that of DSBDP 8.

The target in data set [3] is cathepsin B (Homo sapiens, UniProt P07858). The experiment in a line: Cathepsin B-responsive fluorescence activation. It counts as biochemical. Conditions: 1 μM, cathepsin B only (1 unit mL-1), pH 5.0 buffer, 0.1% Tween 80, 37 °C. The procedure:
To examine the response of PMB 1 toward MMP-2 and cathepsin B, its absorption and fluorescence spectra were monitored in the presence of these stimuli at 37 °C over a period of 25 h, using the non-cleavable analogue 14 as the negative control. For studying the MMP-2-responsive effect, MMP-2 (2 μg mL^–1) in PBS at pH 7.4 was used to mimic the high serum levels of this enzyme in patients with cancer.[68] The effect of cathepsin B (using a concentration of 1 unit mL^–1) was studied in the working buffer mentioned above at pH 5.0 to mimic the lysosomal environment.[69] […] Similar results were obtained for the study using cathepsin B in the buffer (Figure S8e–h). […] The more flexible ring-opening structure, however, might slightly increase the separation of the two moieties, leading to a lower FRET efficiency,[70] which could explain the small increase in fluorescence intensity. […] As expected, both the absorption and fluorescence spectra were not changed toward these two enzymes (Figure S9).
The fluorescence recovery was then determined for 1 under the aforementioned conditions, assuming that the fluorescence intensity of 8 at the same concentration in the same medium was the maximum fluorescence intensity that could be recovered. […]
(§3) All of the solutions were stirred continuously at 37 °C. The ir electronic absorption and fluorescence spectra were monitored over a period of 25 h. […]

Data set [4] in a line: Singlet oxygen quantum yield in DMF with DPBF as probe. Conditions: irradiation λ > 610 nm, relative to ZnPc (ΦΔ = 0.56 in DMF). It counts as physicochemical.
Source text: The singlet oxygen generation efficiency of 1 was then studied and compared with that of 8, 14, and ZnPc in all these media using 1,3-diphenylisobenzofuran (DPBF) as the singlet oxygen probe.[67] The absorbance of DPBF’s absorption at 415 nm (in DMF) or 417 nm (in PBS and the buffer) was monitored during light irradiation (λ > 610 nm). Figures S4–S6 show the changes in the absorption spectra of the mixtures in DMF, PBS, and the buffer, respectively, upon irradiation. […] The singlet oxygen quantum yields (ΦΔ) were also determined in DMF. […]
as §1, §2
Compound 1 or 14 was dissolved in DMF to form a 1 mM stock solution, which was then diluted to 1 μM with PBS at pH 7.4 or buffer solution (pH 5.0, 25 mM NaOAc, 1 mM EDTA, 500 μM GSH), both in the presence of 0.1% Tween 80 (v/v) . For the MMP-2-responsive studies, the solutions in PBS were treated with MMP-2 (2 μg mL-1). For the cathepsin B-responsive studies, the solutions in buffer solution were treated with cathepsin B (1 unit mL-1). […]
as §3

Take `CCN(CC)c1ccc2nc3ccc(/N=N/c4ccc(N(C)CCCNC(=O)OC[C@@H]5[C@@H]6CCc7nnn(CC(=O)NCCCC[C@@H]8NC(=O)CNC(=O)[C@H](CCCCN)NC(=O)[C@H](CCCNC(=N)N)NC(=O)[C@H](C(C)C)NC(=O)CNC(=O)[C@H](CC(C)C)NC(=O)[C@@H]9CCCN9C(=O)[C@H](CCCCN)NC(=O)[C@@H](N)CSCc9cc(COc%10ccc(C%11=C%12C(C)=C(I)C(/C=C/c%13ccc(OCCOCCOCCOC)cc%13)=[N+]%12[B-](F)(F)n%12c(/C=C/c%13ccc(OCCOCCOCCOC)cc%13)c(I)c(C)c%12%11)cc%10)cc(c9)CSC[C@@H](C(N)=O)NC(=O)[C@H](CCCCN)NC(=O)[C@H](CCCCN)NC(=O)CNC(=O)[C@H](CC(C)C)NC(=O)[C@H](Cc9ccccc9)NC(=O)CNC(=O)[C@H](CCCCN)NC(=O)CNC8=O)c7CC[C@@H]65)cc4)cc3[n+](-c3ccccc3)c2c1` [compound 1]: the “singlet oxygen generation (DPBF decay at 417 nm) after enzyme treatment” value in data set [1] (1 μM) is “turned on remarkably”. Further, the “on/off ratio (fluorescence intensity at 25 h / initial intensity)” value in data set [1] (1 μM, MMP-2 6 h then cathepsin B 19 h, 37 °C) is reported as 16; in data set [3] it was “ca. 2.7”. In data set [1] (1 μM, MMP-2 (2 μg mL-1) in PBS 6 h, then cathepsin B (1 unit mL-1) pH 5.0 buffer 19 h, 37 °C, relative to 8), this compound showed a fluorescence recovery of 85%. Also, in data set [1] (MMP-2 6 h then cathepsin B 19 h, fragments 17 and 18 formed), the “LC-MS signal of intact compound after enzyme treatment” value was “disappearance of the signal of 1”. In data set [2], the “ΦF (fluorescence quantum yield)” value stood at 0.01. For the same compound, the “ΦΔ (singlet oxygen quantum yield)” value in data set [4] is recorded as 0.02.

Take `CCN(CC)c1ccc2nc3ccc(/N=N/c4ccc(N(C)CCCNC(=O)OC[C@@H]5[C@@H]6CCc7nnn(CC(=O)NCCCC[C@@H]8NC(=O)CNC(=O)[C@H](CCCCN)NC(=O)CNC(=O)CNC(=O)CNC(=O)CNC(=O)CNC(=O)[C@H](CCCCN)NC(=O)[C@@H](N)CSCc9cc(COc%10ccc(C%11=C%12C(C)=C(I)C(/C=C/c%13ccc(OCCOCCOCCOC)cc%13)=[N+]%12[B-](F)(F)n%12c(/C=C/c%13ccc(OCCOCCOCCOC)cc%13)c(I)c(C)c%12%11)cc%10)cc(c9)CSC[C@@H](C(N)=O)NC(=O)[C@H](CCCCN)NC(=O)[C@H](CCCCN)NC(=O)CNC(=O)CNC(=O)CNC(=O)CNC(=O)[C@H](CCCCN)NC(=O)CNC8=O)c7CC[C@@H]65)cc4)cc3[n+](-c3ccccc3)c2c1` [compound 14]: in data set [1] (1 μM), the “singlet oxygen generation (DPBF decay at 417 nm) after enzyme treatment” value is “negligible”. Besides, the “ΦF (fluorescence quantum yield)” value in data set [2] is given as 0.01. Moreover, the “ΦΔ (singlet oxygen quantum yield)” value in data set [4] stood at 0.02.

The record behind these values is article PMC10080691, “Enzyme-Responsive Double-Locked Photodynamic Molecular Beacon for Targeted Photodynamic Anticancer Therapy” (Journal of the American Chemical Society, 2023).
